Test results taken from US12054483B2, “Small molecule inhibitors of DYRK/CLK and uses thereof” (Arizona Board of Regents on Behalf of the University of …, priority 2018, dated 2024).

biological target: DYRK1A (Homo sapiens, UniProt Q13627); test: Affinity testing of compounds with DYRK1A (KD); assay type: binding; settings: DYRK1A affinity key classes

Structure (SMILES)	Kd [µM]
c1cc(-c2ccc3ncc(-c4ccc(CN5CCCCC5)cc4)n3n2)ccn1 [Compound 97, 3-(4-(piperidin-1-ylmethyl)phenyl)-6-(pyridin-4-yl)imidazo[1,2-b]pyridazine]	0.0005 to 0.1
Cc1cc(-c2ccc3nc(C)n(-c4ccc(N5CCOCC5)c(F)c4)c3n2)ccn1 [Compound 145, 4-(2-fluoro-4-(2-methyl-5-(2-methylpyridin-4-yl)-3H-imidazo[4,5-b]pyridin-3-yl)phenyl)morpholine]	0.0005 to 0.1
Cc1nc2ccc(-c3ccnc(N)c3)nc2n1-c1ccc(N2CC3CCC(C2)O3)c(F)c1 [Compound 167, 4-(3-(4-(8-oxa-3-azabicyclo[3.2.1]octan-3-yl)-3-fluorophenyl)-2-methyl-3H-imidazo[4,5-b]pyridin-5-yl)pyridin-2-amine]	0.0005 to 0.1
Nc1cc(-c2ccn3ncc(-c4ccc(CN5CCOCC5)cc4)c3n2)ccn1 [Compound 112, 4-(3-(4-(morpholinomethyl)phenyl)pyrazolo[1,5-a]pyrimidin-5-yl)pyridin-2-amine]	0.501 to 10
FC1CN(Cc2ccc(-c3cnc4ccc(-c5ccncc5)nn34)cc2)C1 [Compound 99, 3-(4-((3-fluoroazetidin-1-yl)methyl)phenyl)-6-(pyridin-4-yl)imidazo[1,2-b]pyridazine]	0.0005 to 0.1
c1cc(-c2ccc3ncn(-c4ccc5c(c4)OCO5)c3n2)ccn1 [Compound 4, 3-(benzo[d][1,3]dioxol-5-yl)-5-(pyridin-4-yl)-3H-imidazo[4,5-b]pyridine]	0.0005 to 0.1
Cc1nc2ccc(-c3ccnc(N)c3)nc2n1-c1ccc(N2CCOC[C@H]2C)c(F)c1 [Compound 170, (R)-4-(3-(3-fluoro-4-(3-methylmorpholino)phenyl)-2-methyl-3H-imidazo[4,5-b]pyridin-5-yl)pyridin-2-amine]	0.0005 to 0.1
c1cc(-c2ccc3ncc(-c4ccc5c(c4)OCO5)n3n2)ccn1 [Compound 23, 3-(benzo[d][1,3]dioxol-5-yl)-6-(pyridin-4-yl)imidazo[1,2-b]pyridazine]	0.0005 to 0.1
Cc1nc2ccc(-c3ccncc3)nc2n1-c1ccc(N2CCN(C)CC2)cc1 [Compound 132, 2-methyl-3-(4-(4-methylpiperazin-1-yl)phenyl)-5-(pyridin-4-yl)-3H-imidazo[4,5-b]pyridine]	0.0005 to 0.1
Cc1nc2ccc(-c3cn[nH]c3)c(F)c2n1-c1ccc2c(c1)OCO2 [Compound 20, 1-(benzo[d][1,3]dioxol-5-yl)-7-fluoro-2-methyl-6-(1H-pyrazol-4-yl)-1H-benzo[d]imidazole]	0.0005 to 0.1
Cc1nc2ccc(-c3ccncc3)nc2n1-c1ccc(CN2CCOCC2)cc1 [Compound 28, 4-(4-(2-methyl-5-(pyridin-4-yl)-3H-imidazo[4,5-b]pyridin-3-yl)benzyl)morpholine]	0.0005 to 0.1
Cc1nc2ncc(-c3ccnc(N)c3)nc2n1-c1ccc(N2CCOCC2)cc1 [Compound 128, 4-(2-methyl-1-(4-morpholinophenyl)-1H-imidazo[4,5-b]pyrazin-6-yl)pyridin-2-amine]	0.501 to 10
Cc1cc(-c2ccc3ncc(-c4ccc(N5CCCCC5)nc4)n3n2)ccn1 [Compound 81, 6-(2-methylpyridin-4-yl)-3-(6-(piperidin-1-yl)pyridin-3-yl)imidazo[1,2-b]pyridazine]	0.101 to 0.5
Cc1nc2ccc(-c3ccncc3)nc2n1-c1ccc(CN2CCN(C)CC2)cc1 [Compound 125, 2-methyl-3-(4-((4-methylpiperazin-1-yl)methyl)phenyl)-5-(pyridin-4-yl)-3H-imidazo[4,5-b]pyridine]	0.0005 to 0.1
FC1(F)CCCN(Cc2ccc(-c3cnc4ccc(-c5ccncc5)nn34)cc2)C1 [Compound 95]	0.501 to 10
CC(=O)N1CCN(c2cnc3ccc(-c4ccncc4)nn23)CC1 [Compound 85, 1-(4-(6-(pyridin-4-yl)imidazo[1,2-b]pyridazin-3-yl)piperazin-1-yl)ethan-1-one]	0.501 to 10
Cc1nc2ccc(-c3ccnc(C(F)F)c3)nc2n1-c1ccc2c(c1)OCO2 [Compound 61, 3-(benzo[d][1,3]dioxol-5-yl)-5-(2-(difluoromethyl)pyridin-4-yl)-2-methyl-3H-imidazo[4,5-b]pyridine]	0.501 to 10
COC(=O)c1ccc(-n2cnc3ccc(-c4ccncc4)c(F)c32)cc1 [Compound 5, methyl 4-(7-fluoro-6-(pyridin-4-yl)-1H-benzo[d]imidazol-1-yl)benzoate]	0.0005 to 0.1
Cc1cc(-c2ccc3ncc(-c4ccc(N5CCOCC5)nc4)n3n2)ccn1 [Compound 80, 4-(5-(6-(2-methylpyridin-4-yl)imidazo[1,2-b]pyridazin-3-yl)pyridin-2-yl)morpholine]	0.101 to 0.5
Cc1nc2ccc(-c3ccnc4[nH]ccc34)nc2n1-c1cccc(CN2CCOCC2)c1 [Compound 178, 4-(3-(2-methyl-5-(1H-pyrrolo[2,3-b]pyridin-4-yl)-3H-imidazo[4,5-b]pyridin-3-yl)benzyl)morpholine]	0.0005 to 0.1

Continued, values first:

Kd [µM]	Structure (SMILES)
0.101 to 0.5	Cc1nc2ccc(-c3ccncc3)nc2n1-c1ccc(C(=O)N2CCOCC2)cc1 [Compound 56, (4-(2-methyl-5-(pyridin-4-yl)-3H-imidazo[4,5-b]pyridin-3-yl)phenyl)(morpholino)methanone]
0.0005 to 0.1	Cc1nc2ccc(-c3ccnc(N)c3)nc2n1-c1ccc(N2CCOCC2)nc1 [Compound 158, 4-(2-methyl-3-(6-morpholinopyridin-3-yl)-3H-imidazo[4,5-b]pyridin-5-yl)pyridin-2-amine]
0.501 to 10	Cc1nc2cccnc2n1-c1ccc(CN2CCOCC2)cc1 [Compound 177, 4-(4-(2-methyl-3H-imidazo[4,5-b]pyridin-3-yl)benzyl)morpholine]
0.101 to 0.5	COC(=O)c1ccc(-n2cnc3cc(F)c(-c4ccncc4)cc32)cc1 [Compound 7, methyl 4-(5-fluoro-6-(pyridin-4-yl)-1H-benzo[d]imidazol-1-yl)benzoate]
0.0005 to 0.1	Cc1nc2ccc(-c3ccnc(N)c3)nc2n1-c1ccc(N2CCOCC2)c(Cl)c1 [Compound 168, 4-(3-(3-chloro-4-morpholinophenyl)-2-methyl-3H-imidazo[4,5-b]pyridin-5-yl)pyridin-2-amine]
0.501 to 10	Fc1c(-c2ccncc2)ccc2nc(C3CC3)n(-c3ccc4c(c3)OCO4)c12 [Compound 21, 1-(benzo[d][1,3]dioxol-5-yl)-2-cyclopropyl-7-fluoro-6-(pyridin-4-yl)-1H-benzo[d]imidazole]
0.0005 to 0.1	Cc1nc2cc(-n3c(C)nc4ccc(-c5ccncc5)nc43)ccc2[nH]1 [Compound 138, 2-methyl-3-(2-methyl-1H-benzo[d]imidazol-5-yl)-5-(pyridin-4-yl)-3H-imidazo[4,5-b]pyridine]
0.101 to 0.5	N#Cc1ccnc(-n2cnc3ccc(-c4ccncc4)c(F)c32)c1 [Compound 11, 2-(7-fluoro-6-(pyridin-4-yl)-1H-benzo[d]imidazol-1-yl)isonicotinonitrile]
0.0005 to 0.1	c1cc(-c2ccc3ncc(-c4ccc(N5CCNCC5)nc4)n3n2)ccn1 [Compound 76, 3-(6-(piperazin-1-yl)pyridin-3-yl)-6-(pyridin-4-yl)imidazo[1,2-b]pyridazine]
0.101 to 0.5	c1cc(-c2ccc3ncc(-c4ccc(CN5CCCC5)cc4)n3n2)ccn1 [Compound 103, 6-(pyridin-4-yl)-3-(4-(pyrrolidin-1-ylmethyl)phenyl)imidazo[1,2-b]pyridazine]
0.0005 to 0.1	Nc1cc(-c2ccc3ncc(-c4ccc(CN5CCOCC5)cc4)n3n2)ccn1 [Compound 108, 4-(3-(4-(morpholinomethyl)phenyl)imidazo[1,2-b]pyridazin-6-yl)pyridin-2-amine]
